Test results taken from US9192601B2, “Methods for enhancing muscle performance and tone” (Salk Institute for Biological Studies, priority 2006, dated 2015).

How the values were obtained:
epididymal white adipose = assay: Epididymal fat to body weight ratio and H&E staining of white adipose; format: in vivo, mouse; conditions: GW1516 in combination with exercise
Protocol: Hematoxylin and eosin (H&E) staining of white adipose tissue paraffin sections was performed as previously described (Wang et al., PLoS Biol., 2:e294, 2004; Wang et al., Cell, 113:159-70, 2003).

myosin heavy chain (MHC) = assay: Myosin heavy chain (MHC) expression; format: in vivo, mouse
Protocol: (§1) In addition to its effects on the fiber type, exercise training increased skeletal muscle mitochondrial biogenesis, which can be measured as a function of mitochondrial DNA expression levels using quantitative real time PCR (QPCR). Mitochondrial DNA expression levels were determined in muscles of V, GW, Tr, and GW+Tr subjects using quantitative real time PCR. […] Such an increase is known to contribute to enhanced endurance capacity (e.g., Holloszy, Med. Sci. Sports 7:155-64, 1975). Slow-twitch and fast-twitch muscle fiber types also can be distinguished by myosin isoform expression (Gauthier and Lowey, J. Cell Biol. 81:10-25, 1979; Fitzsimons and Hoh, Biochem. J. 193:229-33, 1981). […] Therefore, at least at the transcriptional level, the PPARδ agonist was capable of inducing some proteins characteristic of a slow-twitch muscle fiber phenotype.

[1] = tested on: type I (slow oxidative) muscle fibers; assay: Meta-chromatic staining of gastrocnemius fiber types; format: in vivo, mouse
Text: In this assay, muscle fibers with high ATPase activity {e.g., type I (slow oxidative) muscle fibers) are darkly stained.

mitochondrial DNA = assay: Mitochondrial DNA expression by QPCR; format: in vivo, mouse
Protocol: as §1

quadriceps muscle = assay: Microarray analysis of quadriceps (Affymetrix mouse genome 430A 2.0); format: in vivo
[2] = GW + Tr: GW1516 + exercise training, quadriceps
[3] = GW + Tr: GW1516 + exercise training, quadriceps, listed as GW
[4] = GW: GW1516 alone, sedentary, quadriceps, — = not regulated

Cyp2e1 expression (quadriceps muscle; [2]): 2.941
Compound: Cc1cc(SCc2sc(-c3ccc(C(F)(F)F)cc3)nc2C)ccc1OCC(=O)O [GW1516, (2-methyl-4(((4-methyl-2-(4-trifluoromethylphenyl)-1,3-thiazol-5-yl)methyl)sulfanyl)phenoxy)acetic acid]
cross-sectional area of the adipocytes (epididymal white adipose): decreased | MHC I and MHC lib expression (myosin heavy chain (MHC); GW1516 combined with exercise): did not induce additional changes | expression of MHC Ha (myosin heavy chain (MHC); sedentary mice): did not alter | expression of MHC I (myosin heavy chain (MHC); sedentary mice vs vehicle): increased | expression of MHC lib (myosin heavy chain (MHC); sedentary mice vs vehicle): decreased | number of type I muscle fibers in exercised muscle ([1]; GW1516 treatment and exercise training): significantly increased | proportion of type I muscle fibers vs vehicle ([1]; sedentary mice, gastrocnemius): no significant difference | increase in proportion of type I fibers vs vehicle-treated sedentary mice ([1]; trained mice): 38% | increase in mitochondrial DNA expression (mitochondrial DNA; combination of exercise and GW1516): approximately 50% | mitochondrial DNA expression (mitochondrial DNA; drug alone): not changed | number of genes regulated in quadriceps (quadriceps muscle; GW1516 treatment alone): 96 genes | 1810073N04Rik expression (quadriceps muscle; [2]): 2.326 | 2310076L09Rik expression (quadriceps muscle; [2]): 1.868 | Abcb1a expression (quadriceps muscle; [2]): 10.322 | Acaa2 expression (quadriceps muscle; [2]): 1.926 | Acadl expression (quadriceps muscle; [2]): 2.549 | Acat2 expression (quadriceps muscle; [2]): 1.625 | Acly expression (quadriceps muscle; [2]): 2.606 | Acp5 expression (quadriceps muscle; [2]): 3.91 | Adfp (adipose differentiation related protein) expression (quadriceps muscle; [2]): 2.009 | Adipoq expression (quadriceps muscle; [2]): 3.082 | Adrb3 expression (quadriceps muscle; [2]): 3.83 | Aldh1a7 expression (quadriceps muscle; [2]): 3.862 | Angptl4 expression (quadriceps muscle; [2]): 5.495 | Aplp2 expression (quadriceps muscle; [2]): 1.937 | Arcn1 expression (quadriceps muscle; [2]): 1.617 | Asb15 expression (quadriceps muscle; [2]): 1.78 | Atf3 expression (quadriceps muscle; [2]): 1.802 | BC054059 expression (quadriceps muscle; [2]): 5.08 | Btg2 expression (quadriceps muscle; [2]): 1.601 | C530043G21Rik expression (quadriceps muscle; [2]): 1.5 | Car3 expression (quadriceps muscle; [2]): 2.339 | Cat expression (quadriceps muscle; [2]): 1.82 | Cd36 expression (quadriceps muscle; [2]): 1.584 | Cdo1 expression (quadriceps muscle; [2]): 3.266 | Cebpa expression (quadriceps muscle; [2]): 2.168 | Cfd expression (quadriceps muscle; [2]): 2.828 | Cidea expression (quadriceps muscle; [2]): 49.625 | Cidec expression (quadriceps muscle; [2]): 4.771 | Clcn5 expression (quadriceps muscle; [2]): 2.333 | Cldn5 expression (quadriceps muscle; [2]): 1.545 | Cpt1a expression (quadriceps muscle; [2]): 2.753 | Crybb1 expression (quadriceps muscle; [2]): 2.457 | D4Wsu53e expression (quadriceps muscle; [2]): 1.586 | Dbi expression (quadriceps muscle; [2]): 1.936 | Dgat2 expression (quadriceps muscle; [2]): 2.784 | Dnajb1 expression (quadriceps muscle; [2]): 3.59 | Dusp7 expression (quadriceps muscle; [2]): 1.661 | Dync1i2 expression (quadriceps muscle; [2]): 1.705 | Egr1 expression (quadriceps muscle; [2]): 2.577 | Fabp3 expression (quadriceps muscle; [2]): 1.833 | Fabp4 expression (quadriceps muscle; [2]): 2.189 | Fasn expression (quadriceps muscle; [2]): 6.323 | Fbp2 expression (quadriceps muscle; [2]): 2.808 | Fos expression (quadriceps muscle; [2]): 3.9 | Gpam expression (quadriceps muscle; [2]): 2.207 | Gpiap1 expression (quadriceps muscle; [2]): 1.83 | Hba-a1 expression (quadriceps muscle; [2]): 1.632 | Hbb-b2|Hbb-y expression (quadriceps muscle; [2]): 1.626 | Hip1r expression (quadriceps muscle; [2]): 1.75 | Hipk3 expression (quadriceps muscle; [2]): 1.694 | Hp expression (quadriceps muscle; [2]): 1.679 | Hsd17b12 expression (quadriceps muscle; [2]): 2.376 | Hsp90aa1 expression (quadriceps muscle; [2]): 1.513 | Hspa1b expression (quadriceps muscle; [2]): 8.845 | Hspa9a expression (quadriceps muscle; [2]): 1.61 | Ifi27 expression (quadriceps muscle; [2]): 1.714 | Igf2 expression (quadriceps muscle; [2]): 1.635 | Igfbp5 expression (quadriceps muscle; [2]): 1.772 | Il6st expression (quadriceps muscle; [2]): 1.972 | Junb expression (quadriceps muscle; [2]): 1.792 | Klf3 expression (quadriceps muscle; [2]): 1.901 | Ldhb expression (quadriceps muscle; [2]): 2.541 | Lig3 expression (quadriceps muscle; [2]): 2.693 | Lipe expression (quadriceps muscle; [2]): 3.032 | Lmx1a expression (quadriceps muscle; [2]): 4.106 | Lpl expression (quadriceps muscle; [2]): 1.659 | Mb expression (quadriceps muscle; [2]): 1.578 | Mgl1 / Mgll (monoglyceride lipase) expression (quadriceps muscle; [2]): 1.907 | Mgst1 expression (quadriceps muscle; [2]): 1.916 | Mlycd expression (quadriceps muscle; [2]): 1.781 | Mpv17l expression (quadriceps muscle; [2]): 1.988 | Mybph expression (quadriceps muscle; [2]): 1.578 | Myh2 expression (quadriceps muscle; [2]): 2.194 | Neurl expression (quadriceps muscle; [2]): 1.941 | Nle1 expression (quadriceps muscle; [2]): 1.831 | Nr1d2 expression (quadriceps muscle; [2]): 1.794 | Nr4a2 expression (quadriceps muscle; [2]): 1.776 | Pck1 expression (quadriceps muscle; [2]): 3.518 | Pdk4 expression (quadriceps muscle; [2]): 2.27 | Ppp2r1b expression (quadriceps muscle; [2]): 2.509 | Ptplb expression (quadriceps muscle; [2]): 2.38 | Rab5b expression (quadriceps muscle; [2]): 1.603 | Rbbp4 expression (quadriceps muscle; [2]): 2.865 | Rbp4 expression (quadriceps muscle; [2]): 2.065 | Retn expression (quadriceps muscle; [2]): 4.114 | Rpol-4 expression (quadriceps muscle; [2]): 2.498 | Rragd expression (quadriceps muscle; [2]): 2.101 | Rtbdn expression (quadriceps muscle; [2]): 2.32 | Scd1 expression (quadriceps muscle; [2]): 6.494 | Scd2 expression (quadriceps muscle; [2]): 1.849 | Serpina1a expression (quadriceps muscle; [2]): 0.396 | Serpinf1 expression (quadriceps muscle; [2]): 7.765 | Slc1a5 expression (quadriceps muscle; [2]): 1.939 | Slc25a20 expression (quadriceps muscle; [2]): 1.865 | Slc27a1 expression (quadriceps muscle; [2]): 3.58 | Sln expression (quadriceps muscle; [2]): 0.363 | Sod3 expression (quadriceps muscle; [2]): 1.606 | Surf4 expression (quadriceps muscle; [2]): 2.091 | Svs5 expression (quadriceps muscle; [2]): 0.095 | Tgfbr2 expression (quadriceps muscle; [2]): 2.13 | Thrsp expression (quadriceps muscle; [2]): 2.685 | Tkt expression (quadriceps muscle; [2]): 2.256 | Tpcn1 expression (quadriceps muscle; [2]): 2.842 | Trf expression (quadriceps muscle; [2]): 1.907 | Trim35 expression (quadriceps muscle; [2]): 1.856 | Ucp3 expression (quadriceps muscle; [2]): 2.943 | Wnt7b expression (quadriceps muscle; [2]): 4.449 | Ywhag expression (quadriceps muscle; [2]): 1.87 | Zfp261 expression (quadriceps muscle; [2]): 1.847 | erythroid differentiation regulator 1 expression (quadriceps muscle; [2]): 0.619 | Acly expression (quadriceps muscle; [3]): 2.458 | Cat expression (quadriceps muscle; [3]): 1.728 | Hsp90aa1 expression (quadriceps muscle; [3]): 1.455 | Slc25a20 expression (quadriceps muscle; [3]): 1.704 | Ankrd1 expression (quadriceps muscle; [4]): 4.235 | Cryab expression (quadriceps muscle; [4]): 1.561 | Crygf expression (quadriceps muscle; [4]): 1.801 | Dnaja4 expression (quadriceps muscle; [4]): 1.756 | Hspb1 expression (quadriceps muscle; [4]): 1.815 | Hspb7 expression (quadriceps muscle; [4]): 3.414 | Mt1 expression (quadriceps muscle; [4]): 2.364 | Mt2 expression (quadriceps muscle; [4]): 2.151 | Smad3 expression (quadriceps muscle; [4]): 1.841 | Tnfrsf12a expression (quadriceps muscle; [4]): 1.759 | number of genes regulated in quadriceps (quadriceps muscle; combination of GW1516 and exercise): 130 genes
